In patent US4346099A, “Carboxy-imidazole derivatives, compositions and use” (Ono Pharmaceutical Co., Ltd., priority 1981, dated 1982):
Structures can show the parent of a compound that is named as a salt.

Biological target: T1, thromboxane synthetase from rabbit platelet microsomes (Oryctolagus cuniculus, UniProt G1TAZ9)
T1 construct: thromboxane synthetase from rabbit platelet microsomes; from tissue; host or cells: rabbit platelet microsomes
T1 sequence (G1TAZ9 1-530): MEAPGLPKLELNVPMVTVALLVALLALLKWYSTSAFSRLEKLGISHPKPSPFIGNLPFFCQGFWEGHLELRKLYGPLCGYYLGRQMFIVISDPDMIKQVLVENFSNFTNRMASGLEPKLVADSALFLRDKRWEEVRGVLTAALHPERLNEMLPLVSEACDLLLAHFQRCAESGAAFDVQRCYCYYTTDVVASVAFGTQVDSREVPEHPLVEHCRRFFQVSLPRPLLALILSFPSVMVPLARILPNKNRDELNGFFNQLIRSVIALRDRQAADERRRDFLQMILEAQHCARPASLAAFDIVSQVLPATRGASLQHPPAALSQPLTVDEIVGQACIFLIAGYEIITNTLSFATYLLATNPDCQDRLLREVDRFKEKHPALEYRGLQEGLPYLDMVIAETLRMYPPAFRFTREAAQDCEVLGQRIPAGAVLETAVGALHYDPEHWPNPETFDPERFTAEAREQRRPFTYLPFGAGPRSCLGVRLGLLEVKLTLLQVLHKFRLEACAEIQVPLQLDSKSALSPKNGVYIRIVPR
Experiment: inhibition of thromboxane synthetase from rabbit platelet microsomes (standard laboratory tests)
Format: biochemical

SMILES	IC50 [nM]
O=C(O)C1(CCCCCCn2ccnc2)CCCCC1 [1-(7-carboxy-7,7-pentanoheptyl)imidazole hydrochloride]	46
O=C(O)C(CCCCCCn1ccnc1)c1ccccc1 (centres unmarked) [1-(7-carboxy-7-phenylheptyl)imidazole hydrochloride]	38
